The values that follow come from PMC5605781 (Journal of medicinal chemistry, 2017).

A word on the EC50: it is the concentration giving half of the maximal effect. The term IC50 denotes the concentration that inhibits the measured activity by half.

The test system of test [1] is HIV-1. As to conditions: antiviral activity; cited from earlier work.
Test [2] relates to HIV-1NL4-3. Nature of the test: Antiviral p24 assay in MT-4 cells, wild-type HIV-1NL4-3. Type of test: cell-based. As to conditions: wild-type HIV-1NL4-3, compared to DRV.
Test [3] concerns seven HIV-1 variants selected in vitro with SQV, APV, LPV, IDV, NFV, ATV, TPV. Briefly: microbe, parasite or virus in culture. Type of test: cell-based. The settings on record: Human immunodeficiency virus 1, read-out: IC50 values, range over variants.

Consider `COc1ccc(S(=O)(=O)N(CC(C)C)C[C@@H](O)[C@H](Cc2ccccc2)NC(=O)O[C@H]2CO[C@H]3OCC[C@H]32)cc1` [Inhibitor 3], for which, in test [1], the EC50 was 0.5 nM.

With `CC(C)CN(C[C@@H](O)[C@H](Cc1ccccc1)NC(=O)O[C@H]1C2CO[C@H]3OCC1C3C2)S(=O)(=O)c1ccc2nc(NC3CC3)sc2c1` (stereo partly drawn) [Inhibitor 5, (3S,7aS,8S)-Hexahydro-4H-3,5-methanofuro[2,3-b]pyran-8-yl ((2S,3R)-4-((2-(cyclopropylamino)-N-isobutylbenzo[d]thiazole)-6-sulfonamido)-3-hydroxy-1-phenylbutan-2-yl)carbamate], the “factor of more potent block of replication compared to DRV” value in test [2] came out at 10. In test [3], the IC50 lay within 0.0026 to 0.27 nM.
